Experimental data published in PubChem BioAssay AID1963984 (Molecular Pharmacology Branch, DTP, NCI, 2024).

System: 233499-124-R-J3-PDC spheroids with HUVEC/MSC, viability
Assay: Anticancer human tumor 233499-124-R-J3-PDC patient-derived colon adenocarcinoma cell line growth inhibition [PI3K]
Details: for viability, T/C: stronger effect = lower value
Summary of the method: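 Stroma-containing spheroids: tumor line, pooled-donor HUVEC, hMSC. Treatments: targeted agents with PI3K inhibitors. Dosing: clinically relevant, half-log spacing, 10 microM ceiling without known Cmax. Read-out: cell viability.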

[1] = curve of first compound, second compound 0.0316 µM
[2] = curve of first compound, second compound 0.1 µM
[3] = curve of first compound, second compound 0.316 µM
[4] = curve of first compound, second compound 1 µM
[5] = curve of first compound, second compound 3.16 µM
[6] = curve of first compound, second compound 10 µM
[7] = second compound 0.0316 µM, first compound 0.0316 µM
[8] = second compound 0.0316 µM, first compound 0.1 µM
[9] = second compound 0.0316 µM, first compound 0.316 µM
[10] = second compound 0.0316 µM, first compound 1 µM
[11] = second compound 0.1 µM, first compound 0.0316 µM
[12] = second compound 0.1 µM, first compound 0.1 µM
[13] = second compound 0.1 µM, first compound 0.316 µM
[14] = second compound 0.1 µM, first compound 1 µM
[15] = second compound 0.316 µM, first compound 0.0316 µM
[16] = second compound 0.316 µM, first compound 0.1 µM
[17] = second compound 0.316 µM, first compound 0.316 µM
[18] = second compound 0.316 µM, first compound 1 µM
[19] = second compound 1 µM, first compound 0.0316 µM
[20] = second compound 1 µM, first compound 0.1 µM
[21] = second compound 1 µM, first compound 0.316 µM
[22] = second compound 1 µM, first compound 1 µM
[23] = second compound 3.16 µM, first compound 0.0316 µM
[24] = second compound 3.16 µM, first compound 0.1 µM
[25] = second compound 3.16 µM, first compound 0.316 µM
[26] = second compound 3.16 µM, first compound 1 µM
[27] = second compound 10 µM, first compound 0.0316 µM
[28] = second compound 10 µM, first compound 0.1 µM
[29] = second compound 10 µM, first compound 0.316 µM
[30] = second compound 10 µM, first compound 1 µM
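Note: spheroids exposed to agents for seven days before readout.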
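Throughout, for viability, T/C: percent viability relative to DMSO vehicle control taken as 100%.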

Compound `Cn1nccc1Nc1nccc(-c2ccn(C(CO)c3ccc(Cl)c(F)c3)c(=O)c2)n1` (stereo unspecified) + Cc1nc(NC(=O)N2CCCC2C(N)=O)sc1-c1ccnc(C(C)(C)C(F)(F)F)c1 has an IC50 [1] of over 10000 nM, an IC50 [2] of 8610 nM and an IC50 [3] of over 10000 nM. It also gave an IC50 [4] of 3160 nM, an IC50 [5] of 853 nM and an IC50 [6] of under 31.6 nM. It also gave a viability, T/C [7] of 82.9%, a viability, T/C [8] of 98.6% and a viability, T/C [9] of 73%. For the same compound, the viability, T/C [10] was 91.6%, the viability, T/C (second compound 0.0316 µM, first compound 3.16 µM) was 68.9% and the viability, T/C (second compound 0.0316 µM, first compound 10 µM) was 58.2%. It also gave a viability, T/C [11] of 92.6%, a viability, T/C [12] of 100% and a viability, T/C [13] of 68.7%. For the same compound, the viability, T/C [14] was 83.3%, the viability, T/C (second compound 0.1 µM, first compound 3.16 µM) was 82.7% and the viability, T/C (second compound 0.1 µM, first compound 10 µM) was 45.2%. The viability, T/C [15] was 94.6%, the viability, T/C [16] was 63.8% and the viability, T/C [17] was 67.9%. The viability, T/C [18] was 65.7%, the viability, T/C (second compound 0.316 µM, first compound 3.16 µM) was 57.7% and the viability, T/C (second compound 0.316 µM, first compound 10 µM) was 47.8%. For the same compound, the viability, T/C [19] was 89.2%, the viability, T/C [20] was 81.5% and the viability, T/C [21] was 31.1%. For the same compound, the viability, T/C [22] was 57.6%, the viability, T/C (second compound 1 µM, first compound 3.16 µM) was 52.3% and the viability, T/C (second compound 1 µM, first compound 10 µM) was 64.8%. For the same compound, the viability, T/C [23] was 68.2%, the viability, T/C [24] was 58.7% and the viability, T/C [25] was 54.8%. For the same compound, the viability, T/C [26] was 53.8%, the viability, T/C (second compound 3.16 µM, first compound 3.16 µM) was 38.4% and the viability, T/C (second compound 3.16 µM, first compound 10 µM) was 34.8%. The viability, T/C [27] was 33.8%, the viability, T/C [28] was 35.6% and the viability, T/C [29] was 46%. It also gave a viability, T/C [30] of 22.7%, a viability, T/C (second compound 10 µM, first compound 3.16 µM) of 14.5% and a viability, T/C (second compound 10 µM, first compound 10 µM) of 17.5%.

For `Cn1nccc1Nc1nccc(-c2ccn(C(CO)c3ccc(Cl)c(F)c3)c(=O)c2)n1` (stereo unspecified), the viability, T/C (compound 0.1 µM) was 100% [middle of 4 runs], the viability, T/C (compound 10 µM) was 71.2% [middle of 4 runs] and the IC50 (curve of compound) was over 10000 nM.

For `CC(Cn1ccc(-c2ccc(C#N)c(Cl)c2)n1)NC(=O)c1cc(C(C)O)[nH]n1` (stereo unspecified), the viability, T/C (compound 0.316 µM) was 97.2% [middle of 4 runs], the viability, T/C (compound 1 µM) was 98.2% [middle of 4 runs] and the viability, T/C (compound 3.16 µM) was 92.5% [middle of 4 runs]. It also gave an IC50 (curve of compound) of over 10000 nM.

For `CCN1CCN(Cc2ccc(Nc3ncc(F)c(-c4cc(F)c5nc(C)n(C(C)C)c5c4)n3)nc2)CC1` + CC(Nc1ncnc2nc[nH]c12)c1cc2cccc(Cl)c2c(=O)n1-c1ccccc1, the IC50 [1] was 916 nM, the IC50 [2] was 832 nM and the IC50 [3] was 788 nM. For the same compound, the IC50 [4] was 963 nM, the IC50 [5] was 214 nM and the IC50 [6] was 193 nM. It also gave a viability, T/C (second compound 0.0316 µM, first compound 0.00316 µM) of 102%, a viability, T/C (second compound 0.0316 µM, first compound 0.01 µM) of 93.5% and a viability, T/C [7] of 83.2%. For the same compound, the viability, T/C [8] was 70.1%, the viability, T/C [9] was 61.5% and the viability, T/C [10] was 48.5%. For the same compound, the viability, T/C (second compound 0.1 µM, first compound 0.00316 µM) was 101%, the viability, T/C (second compound 0.1 µM, first compound 0.01 µM) was 108% and the viability, T/C [11] was 86.7%. It also gave a viability, T/C [12] of 73.8%, a viability, T/C [13] of 61.4% and a viability, T/C [14] of 47%. The viability, T/C (second compound 0.316 µM, first compound 0.00316 µM) was 97.1%, the viability, T/C (second compound 0.316 µM, first compound 0.01 µM) was 87.3% and the viability, T/C [15] was 85.4%. The viability, T/C [16] was 84.2%, the viability, T/C [17] was 66.3% and the viability, T/C [18] was 45.2%. For the same compound, the viability, T/C (second compound 1 µM, first compound 0.00316 µM) was 104%, the viability, T/C (second compound 1 µM, first compound 0.01 µM) was 90.8% and the viability, T/C [19] was 76%. The viability, T/C [20] was 83.8%, the viability, T/C [21] was 54.3% and the viability, T/C [22] was 50.8%. It also gave a viability, T/C (second compound 3.16 µM, first compound 0.00316 µM) of 80.2%, a viability, T/C (second compound 3.16 µM, first compound 0.01 µM) of 79.2% and a viability, T/C [23] of 95.2%. For the same compound, the viability, T/C [24] was 72.6%, the viability, T/C [25] was 39% and the viability, T/C [26] was 32.8%. The viability, T/C (second compound 10 µM, first compound 0.00316 µM) was 75.9%, the viability, T/C (second compound 10 µM, first compound 0.01 µM) was 73.7% and the viability, T/C [27] was 90.8%. The viability, T/C [28] was 57%, the viability, T/C [29] was 51% and the viability, T/C [30] was 38.4%.
